Results published in publication PMC5855764, “Analysis of Peptide Ligand Specificity of Different Insect Adipokinetic Hormone Receptors” (International Journal of Molecular Sciences, 2018).

Key:
HylabAKHR = assay: Aequorin-based bioluminescent calcium assay in CHO-WTA11 cells; assay type: cell-based, Hylobius abietis; settings: peptide at micromolar concentrations; relative to cognate AKH
Description: (§1) We expressed the different insect AKH receptors in Chinese hamster ovary (CHO) WTA11 cells, stably expressing apo-aequorin, a zeocin resistance gene and the promiscuous Gα16 subunit coupling to the phospholipase C and Ca^2+ signaling cascade (Euroscreen, Brussels, Belgium). The AKH from each species elicited a clear dose-dependent response in the bioluminescent calcium assay of its conspecific receptor, with an EC50 value in the low nanomolar range (Figure 3).
(§2) We analyzed the activity of the different AKH receptors using CHO-WTA11 cells, which contain a promiscuous Gα16 subunit that will induce an intracellular Ca^2+-increase upon receptor binding independent of the receptors’ natural signaling cascade (see also [48]). […]
(§3) For transfection of the cells (T75 flasks at 60–80% confluency), we dissolved 5 µg pcDNA3.1-receptor or empty pcDNA3.1 vector in 2.5 mL Opti-MEM® (Gibco) supplemented with 12.5 µL Plus™ Reagent of the Lipofectamine LTX Kit (Invitrogen) in 5 mL polystyrene round-bottom tubes. […] We monitored ligand-induced changes in intracellular Ca^2+ in the cells as described below. […]

AcypiAKHR = assay: as above; assay type: cell-based, Acyrthosiphon pisum; settings: peptide at micromolar concentrations; relative to cognate AKH
Description: as §1, §2, §3

TricaAKHR = assay: as above; assay type: cell-based, Tribolium castaneum; settings: peptide at micromolar concentrations; relative to cognate AKH
Description: as §1, §2, §3

[1] = test system: seven different insect AKH receptors; assay: Aequorin-based bioluminescent calcium assay in CHO-WTA11 cells, statements for all seven receptors together; assay type: cell-based; settings: peptide at micromolar concentrations; all analysed AKHRs
Description: as §1, §2, §3

Substance | receptor activation (HylabAKHR) | receptor activation (AcypiAKHR) | receptor activation (TricaAKHR) | AKHR activation [1]
pQ-TFQYSHGWTNamide [Crz, corazonin] | very limited activation | very limited activation | very limited activation | not able to activate any of the AKHRs that were analyzed to same extent as the endogenous AKHs
pQVTF--SRDWNAamide [ACP] | – | – | – | only very low levels of AKHR activation
